Experimental data from PubChem BioAssay (NCI).
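96-well plates; 48 h exposure; 5 concentrations. Endpoints by linear interpolation between flanking doses. Not reached: highest tested concentration assigned. TGI marks complete inhibition of growth.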

Tests used:
Test in all cases: inhibition of tumour cell growth, NCI panel, 48 h
SR leukemia = tested on: SR leukemia
RPMI-8226 leukemia = tested on: RPMI-8226 leukemia
UO-31 renal = tested on: UO-31 renal
SF-268 CNS = tested on: SF-268 CNS
BT-549 breast = tested on: BT-549 breast
SF-295 CNS = tested on: SF-295 CNS
786-0 renal = tested on: 786-0 renal
MDA-MB-231 breast = tested on: MDA-MB-231 breast
U251 CNS = tested on: U251 CNS
NCI/ADR-RES ovarian = tested on: NCI/ADR-RES ovarian
COLO 205 colon = tested on: COLO 205 colon
UACC-62 melanoma = tested on: UACC-62 melanoma

Structure (SMILES)	TGI (SR leukemia) [µM]	TGI (RPMI-8226 leukemia) [µM]	TGI (UO-31 renal) [µM]	TGI (SF-268 CNS) [µM]	TGI (BT-549 breast) [µM]	TGI (SF-295 CNS) [µM]	TGI (786-0 renal) [µM]	TGI (MDA-MB-231 breast) [µM]	TGI (U251 CNS) [µM]	TGI (NCI/ADR-RES ovarian) [µM]	TGI (COLO 205 colon) [µM]	TGI (UACC-62 melanoma) [µM]
CN1CCN(C(=S)N2CCN(C)CC2)CC1	0.983	> 76.7	> 100	> 100	> 100	> 100	> 100	> 100	> 100	> 100	9.45	> 100
CCCCCCc1cc2cc(C(=O)Nc3ccccc3)c(=N)oc2cc1O	> 26.3	> 100	12.7	> 100	> 100	> 100	> 35.8	> 100	> 33.6	> 100	> 100	40.1
N#Cc1c(N)nc2n[nH]c(N)c2c1-c1ccc(Cl)cc1	> 100	> 100	19.9	> 100	12.7	42.7	> 60.8	10.4	> 55	61.6	> 100	4.23
CCOC1OC(=O)c2cc3ccc4c(c3c(-c3ccc5c(c3)OCO5)c21)OCO4 (configuration not stated)	5.43	> 100	> 100	> 100	97.2	8.14	> 100	> 100	> 100	> 74.6	5.16	> 59.2
O=c1cnn(C/C=C/CO)c(=O)[nH]1	> 100	> 100	> 100	> 100	> 100	–	–	> 100	> 100	> 100	> 100	–
Nc1ncnc2c1ncn2[C@@H]1C[C@@H]1CO	> 100	> 100	> 100	–	> 100	> 100	> 100	> 100	> 100	> 100	–	–
COc1ccc2cc(/C=N/NC(=O)Nc3ccccc3)ccc2c1	> 100	> 100	> 100	–	> 100	> 100	–	> 100	> 100	> 100	> 100	> 100
OC1C#CCSCC#C/C=C\1 (configuration not stated)	> 100	–	> 100	> 100	> 100	> 100	39.5	> 100	> 100	7.72	29.3	> 100
COC(=O)/C=C(\C)CC(O)/C=C(\C)CCC=C(C)C (configuration not stated)	68.2	–	> 100	–	> 100	> 100	> 100	> 100	> 100	67.9	> 100	> 100
CC(C)C(=O)OCC1OC(n2c(Br)nc3c(=O)[nH]c(N)nc32)C(OC(=O)C(C)C)C1OC(=O)C(C)C (configuration not stated)	> 100	–	> 100	> 100	> 100	56.7	65.3	> 100	–	> 100	> 100	> 100
Cn1c(=O)c(-c2ccccc2)c(N=[N+]=[N-])c2ccccc21	75.4	–	> 100	> 100	> 100	> 100	–	> 100	> 100	> 100	> 100	> 100
N#CCCN(C(=O)Nc1ccccc1)[C@H]1CCCC[C@@H]1N(C(=O)Nc1ccccc1)c1ccccc1	> 100	> 100	> 100	–	> 100	> 100	> 100	> 100	> 100	> 100	> 100	> 100
NNC(=O)c1n[nH]nc1C(=O)NN	> 100	> 100	41.8	> 100	29.3	> 100	28.8	> 100	> 100	> 100	> 100	–
CC(=O)c1[nH]c(NCc2ccccc2)c(C(=S)Nc2ccccc2)c1N	> 100	–	6.34	55.3	64.7	66	32.5	34.1	32.7	> 100	> 100	32.5
Nc1nc(N)c2c3c(cnc2n1)CC(c1ccccc1)CC3 (configuration not stated)	66.1	> 100	–	58.5	81.8	> 100	24.3	96.8	> 100	> 100	> 100	> 100
Cc1[nH]nc(C(F)(F)F)c1N=NN1CCOCC1	2.77	5.06	7.04	26.8	25.1	28.1	–	27.1	27.7	22.1	11.9	23.5
